Reference: BindingDB's records for doi:10.3109/14756366.2010.482047 (Academy of Sciences of The Czech Republic, 2011)

Molecular target: T1, Cytosol aminopeptidase [33-68,L62W] (Sus scrofa, UniProt P28839, L62W)
T1 construct: 33-68
Assay: Kinetic Inhibition Assay
Settings: pH 8.4; 25 °C
Description: LAP was assayed in 75 mM triethanolamine hydrochloride buffer (pH = 8.4, containing 5 mM MgCl2) at 25°C. The substrate (L-leucine-p-nitroanilide) was dissolved in DMSO and added to the assay buffer followed by the enzyme. The hydrolysis of the substrate was monitored by the change in absorbance measured at 405 nm. All the inhibitor solutions were prepared in the assay buffer. The assay solution, which contained 0.05 mL of the substrate solution (0.2, 0.4, 0.6, 0.8, 1 mM final concentrations), 0.25 mL of an inhibitor solution (concentration dependent on the inhibitor), the enzyme solution (20 μg/ml final concentration) and adjusted to a 1 mL final volume.

T1 sequence (P28839 33-68 L62W): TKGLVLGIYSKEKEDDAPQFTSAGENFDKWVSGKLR

Structure (SMILES) | Ki [µM]
CCCCC(N)P(=O)(O)O[C@@H](C)C(=O)O (stereo partly drawn) [Nle-ψ[P(O)(OH)O]-L-Ala (6)] | 269
CSCC[C@H](N)[P@H](=O)O [Met-PH (2)] | 22
CSCCC(N)P(=O)(O)CC(C)C(=O)O (configuration not stated) [Met-ψ[P(O)(OH)CH2]-Ala (5)] | 3.64
CCCC[C@H](N)P(=O)(O)O [1-aminopentylphosphonic acid] | 58
CCCCC(N)[PH](=O)O (configuration not stated) [Nle-PH (4)] | 73.9
CSCC[C@H](N)P(=O)(O)O [Met-P (1)] | 22.6
CCCCC(N)P(=O)(O)O[C@@H](C)C(=O)OC (stereo partly drawn) [Nle-ψ[P(O)(OH)O]-L-AlaOMe (7)] | 219
